Marks after values point to notes of the source that are not given here.

Test [1] relates to angiotensin II induced pressor response. The experiment in a line: Inhibition of angiotensin II induced pressor response in dogs. The format is in vivo, male beagles. As to conditions: fasting, AII 100 ng/kg i.v., test compound p.o. at dose equimolar to compound A 1 mg/kg, in 0.5% methylcellulose, mean±SEM. The protocol:
Inhibitory Effects of the Compounds of the Present Invention Against Angiotensin II Induced Pressor Response in Dogs
For the experiment, male beagles (body weight 12.0-14.7 kg, KITAYAMA LABES, CO., LTD.) were used. They were anesthetized with sodium pentobarbital (50 mg/kg, i.p.), and a tracheal tube was inserted for management of the airway. The femoral region and the back of the neck were shaved, and a disinfectant (Isodine solution, MEIJI SEIKA KAISHA, LTD.) was applied. The dog was fixed at the dorsal position and the right femoral region was incised. A mirror catheter (5 F, MILLER INDUSTRIES) was inserted and placed in the femoral artery and a polyurethane tube in the femoral vein. The catheter and tube were passed through subcutaneously and fixed at the back region. The incised region was sutured thereafter and penicillin G potassium (MEIJI SEIKA KAISHA, LTD., 40000 units) was intramuscularly administered to prevent infection. Beginning from the next day, penicillin G potassium (40000 units) was administered once a day for 3 days. After 3 days for recovery, the dog was subjected to the experiment.
During the experiment, the dog was placed in a small metabolic cage. For measurement, the mirror catheter inserted in the femoral artery was connected to a transducer unit (MILLER INDUSTRIES), and the systemic blood pressure (average blood pressure) was recorded on a recorder (RECTI-HORIZ 8 K, NEC San-ei Instruments) through a DC amplifier (N4777, NEC San-ei Instruments) and a blood pressure monitor amplifier (N4441, NEC San-ei Instruments). The polyurethane tube inserted in the femoral vein was fixed outside the cage and used for administration of AII (PEPTIDE INSTITUTE, INC.). The experiment was conducted under fasting and AII (100 ng/kg, i.v.) was administered 3 or 4 times before administration of a test compound to confirm stabilization of the vasopressor response. A dose of the test compound corresponding to an equimolar amount of compound A was suspended in 0.5% methylcellulose and orally administered at a volume of 2 mL/kg. After drug administration, AII was administered at each time point of measurement and increase in the blood pressure was measured, based on which the inhibition rate from the value before the administration was calculated.
The results are shown in mean±SEM (Table 2). The significance between the group administered with the compound obtained in Example 5 and the group administered with compound A was analyzed using Student's t-test with Bonferroni correction ([…]).

Test [2] shares this test system. The experiment in a line: Inhibition of angiotensin II induced pressor response in rats. As to conditions: AII 100 ng/kg i.v., test compound p.o. at dose equimolar to compound A (0.10-0.14 mg/kg), in 0.5% methylcellulose, mean±SEM. The format is in vivo, Male Sprague-Dawley rats. As for the experimental part:
Inhibitory Effects of Compounds of the Present Invention Against Angiotensin II Induced Pressor Response in Rats
Male Sprague-Dawley rats (9-11 weeks old, CLEA Japan, Inc.) were anesthetized with pentobarbital (50 mg/kg, i.p.) and the femoral artery and vein were isolated and cannulated with polyethylene tubes filled with saline containing heparin (200 U/mL). The catheters were subcutaneously inserted to a site in the back of the neck and fixed. After recovery period, the rat was subjected to the experiment. The arterial catheter was connected to a pressure transducer coupled to a blood pressure monitor amplifier (2238, NEC San-ei Instruments) and the pressure was recorded on a recorder (RECTI-HORIZ 8K, NEC San-ei Instruments). After establishing angiotensin II (AII, 100 ng/kg, i.v.) induced pressor responses, a test compound at a dose corresponding to an equimolar amount of compound A (2-ethoxy-1-{[2′-(5-oxo-4,5-dihydro-1,2,4-oxadiazol-3-yl)biphenyl-4-yl]methyl}-1H-benzimidazole-7-carboxylic acid) was administered. AII was administered 24 hours later and increase in the blood pressure was measured, based on which the inhibition rate from the value before the administration was calculated. All compounds were suspended in 0.5% methylcellulose and orally administered at a volume of 2 mL/kg.
The results are shown in mean±SEM (Table 1). The significance between the group administered with the compound obtained in Example 5 and the other groups was analyzed using Student's t-test ([…]).

Take `CCOc1nc2cccc(C(=O)OCc3oc(=O)oc3C)c2n1Cc1ccc(-c2ccccc2-c2noc(=O)[nH]2)cc1` [Example 2, (5-methyl-2-oxo-1,3-dioxol-4-yl)methyl 2-ethoxy-1-{[2′-(5-oxo-4,5-dihydro-1,2,4-oxadiazol-3-yl)biphenyl-4-yl]methyl}-1H-benzimidazole-7-carboxylate]: in test [1], the “inhibition rate of AII induced increase in blood pressure, 10 hrs after administration” value turned out to be 35.9 ± 4.8 and the “inhibition rate of AII induced increase in blood pressure, 24 hrs after administration” value amounted to 28.6 ± 4.1.

As for `CCOc1nc2cccc(C(=O)OCc3oc(=O)oc3C)c2n1Cc1ccc(-c2ccccc2-c2noc(=O)[nH]2)cc1.[K]` [Example 5, (5-methyl-2-oxo-1,3-dioxol-4-yl)methyl 2-ethoxy-1-{[2′-(5-oxo-4,5-dihydro-1,2,4-oxadiazol-3-yl)biphenyl-4-yl]methyl}-1H-benzimidazole-7-carboxylate potassium salt], in test [1], the “inhibition rate of AII induced increase in blood pressure, 10 hrs after administration” value is reported as 55.6 ± 3.4** and the “inhibition rate of AII induced increase in blood pressure, 24 hrs after administration” value is reported as 40.3 ± 5.1*. Besides, the “inhibition rate of AII induced increase in blood pressure, 24 hrs after administration” value in test [2] came out at 32.7 ± 4.6.

As to `CCOc1nc2cccc(C(=O)O)c2n1Cc1ccc(-c2ccccc2-c2noc(=O)[nH]2)cc1` [compound A, 2-ethoxy-1-{[2′-(5-oxo-4,5-dihydro-1,2,4-oxadiazol-3-yl)biphenyl-4-yl]methyl}-1H-benzimidazole-7-carboxylic acid], in test [1], the “inhibition rate of AII induced increase in blood pressure, 10 hrs after administration” value was found to be 27.0 ± 3.2 and the “inhibition rate of AII induced increase in blood pressure, 24 hrs after administration” value stood at 19.6 ± 3.7.

As for `CCOc1nc2cccc(C(=O)OC)c2n1Cc1ccc(-c2ccccc2-c2noc(=O)[nH]2)cc1` [compound B, methyl 2-ethoxy-1-{[2′-(5-oxo-4,5-dihydro-1,2,4-oxadiazol-3-yl)biphenyl-4-yl]methyl}-1H-benzimidazole-7-carboxylate], in test [2], the “inhibition rate of AII induced increase in blood pressure, 24 hrs after administration” value is given as 0.8 ± 4.9**.

With `CCOc1nc2cccc(C(=O)OC(C)OC(=O)OC3CCCCC3)c2n1Cc1ccc(-c2ccccc2-c2noc(=O)[nH]2)cc1` (stereo not shown) [compound C, 1-(cyclohexyloxycarbonyloxy)ethyl 2-ethoxy-1-{[2′-(5-oxo-4,5-dihydro-1,2,4-oxadiazol-3-yl)biphenyl-4-yl]methyl}-1H-benzimidazole-7-carboxylate], in test [2], the “inhibition rate of AII induced increase in blood pressure, 24 hrs after administration” value is reported as 9.3 ± 8.6*.

For `CCOc1nc2cccc(C(=O)OCOC(C)=O)c2n1Cc1ccc(-c2ccccc2-c2noc(=O)[nH]2)cc1` [compound D, acetoxymethyl 2-ethoxy-1-{[2′-(5-oxo-4,5-dihydro-1,2,4-oxadiazol-3-yl)biphenyl-4-yl]methyl}-1H-benzimidazole-7-carboxylate], the “inhibition rate of AII induced increase in blood pressure, 24 hrs after administration” value in test [2] is recorded as 10.9 ± 5.6*.

For the origin of these results see patent publication US7572920B2, “Benzimidazole derivative and use as a II receptor antagonist” (Takeda Pharmaceutical Company Limited, priority 2004, dated 2009).
